Experiment [1] deals with HCT116 cells. The experiment is described as follows: Measurement of growth inhibitory activity using HCT116 cell. The format is cell-based. To be noted: Homo sapiens, HCT-116, 72 h, 1 μM compound, 3 days, CellTiter-Glo, read-out: Rate of inhibition of cell growth at compound concentration of 1 μM. How it is done:
Measurement of Growth Inhibitory Activity Using HCT116 Cell
Each compound was evaluated for its growth inhibitory activity against HCT116 cells (ATCC) by the following method: the HCT116 cells were inoculated at 900 cells/40 μL/well to a 384-well white plate (Greiner Bio-one) and maintained in an assay medium (RPMI medium (Wako Pure Chemical Industries, Ltd.) containing 2% fetal bovine serum, 50 units/mL penicillin and 50 μg/mL streptomycin (Invitrogen Corp.)). On the next day, the test compound dissolved in dimethyl sulfoxide (DMSO) was dispensed to the plate using TECAN D300 digital dispenser (Tecan Trading AG). Then, the concentration of DMSO in the medium was adjusted to 0.1% by the addition of DMSO. The HCT116 cells supplemented with the compound were incubated at 37° C. in a 5% CO2 environment (test compound addition group).
Also, the same reaction as above was carried out without the addition of the test compound (test compound non-addition group).
Further, the same reaction as above was carried out on condition that neither the HCT116 cells nor the test compound were added (control group).
After 3 days, 20 μL of CellTiter-Glo reagent (Promega Corp.) was added to each well, and the mixture was stirred for 10 minutes. Then, the light emission of each well was measured using ARVO MX1420 (PerkinElmer, Inc.).
The rate of inhibition of HCT116 cell growth (%) was determined according to the following calculation expression:
Rate of inhibition of cell growth=(1−(Light emission of the test compound addition group−Light emission of the control group)/(Light emission of the test compound non-addition group−Light emission of the control group))×100
In general terms: In ATP-based viability assays light output follows the ATP content of the culture.

The target in experiment [2] is T1, human SCD1 (Homo sapiens, UniProt O00767).
T1 construct: made in house; host or cells: High Five insect cells (baculovirus, pFastBac1/hSCD1); membrane fraction
T1 sequence (O00767 1-359): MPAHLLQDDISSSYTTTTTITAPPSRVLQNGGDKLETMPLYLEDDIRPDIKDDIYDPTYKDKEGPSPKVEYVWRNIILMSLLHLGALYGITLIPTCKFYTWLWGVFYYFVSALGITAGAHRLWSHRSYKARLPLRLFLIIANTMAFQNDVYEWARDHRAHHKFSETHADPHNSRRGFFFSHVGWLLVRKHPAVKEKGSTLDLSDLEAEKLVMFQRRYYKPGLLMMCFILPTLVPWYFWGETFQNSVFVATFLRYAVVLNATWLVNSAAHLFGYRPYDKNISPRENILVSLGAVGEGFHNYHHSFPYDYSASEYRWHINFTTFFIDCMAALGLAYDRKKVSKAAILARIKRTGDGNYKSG
In words: Measurement of human SCD1 binding activity (inhibition of binding of radiolabeled compound Z). To be noted: human SCD1-expressing membrane fraction, compound Z radioligand; for inhibition at 1 µM: 1 μM compound, read-out: Rate of inhibition of SCD1 binding (%) at compound concentration of 1 μM. As for the experimental part: Measurement of Human SCD1 Binding Activity Using (5-(6-(1′H-spiro[1-benzofuran-3,3′-pyrrolidin]-1′-yl)pyridazin-3-yl)-1,2,4-oxadiazol-3-yl) [^3H2]methanol
The SCD1 binding activity of the compound of the present invention was measured as the activity of inhibiting the binding of (5-(6-(1′H-spiro[1-benzofuran-3,3′-pyrrolidin]-1′-yl)pyridazin-3-yl)-1,2,4-oxadiazol-3-yl)[^3H2]methanol (radiolabeled form of the compound disclosed as a SCD inhibitor in Example 157 of International Publication No. WO2008/096746; in the present specification, also referred to as compound Z) to SCD1.
Specifically, first, Human liver cDNA library (Takara Bio Inc.) was cloned as a template by PCR using KOD-Plus-(Toyobo Co., Ltd.) DNA polymerase. The primers used were 5′-[…]-3′ and 5′-[…]-3′. The amplification fragment was temporarily transferred to a pCR Blunt II-TOPO vector using Zero Blunt PCR Cloning Kit (Life Technologies, Inc.) to obtain pCR Blunt II-TOPO/hSCD1. A fragment obtained by the cleavage of this pCR Blunt II-TOPO/hSCD1 with BamHI and NotI was transferred to pFastBac1 (Life Technologies, Inc.) to construct a recombinant plasmid pFastBac1/hSCD1 for hSCD1 insect cell expression systems.
Baculovirus was prepared using the pFastBac1/hSCD1 plasmid according to the protocol of Bac-to-Bac Baculovirus Expression System (Life Technologies, Inc.).
The insect cells for use in expression were High Five cells (Life Technologies, Inc.) subcultured in a PSFM-J1 medium (Wako Pure Chemical Industries, Ltd.) containing 5% FBS, 10 U/L heparin (Sigma-Aldrich Corp.) and 50 μg/mL gentamicin.
The High Five cells were inoculated at 0.8×10^6 cells/mL and cultured until the following day. When the cell density reached 2.0×10^6 cells/mL, Ammonium Iron(III) Sulfate 12-Water (Wako Pure Chemical Industries, Ltd.) was added thereto at a final concentration of 10 μM. The cells were further infected with the baculovirus and cultured for 3 days.
After the completion of the culture, the culture solution was centrifuged (4° C., 4,000 rpm, […]) and frozen at −80° C. to obtain hSCD1-expressing insect cells. Next, the frozen hSCD1-expressing insect cells were suspended in buffer A (50 mM Tris-HCl (pH 7.5) containing 250 mM sucrose and cOmplete Protease Inhibitor Cocktail Tablets (F. Hoffmann-La Roche, Ltd.)), and the cells were disrupted (4° C., 20,000 rpm, 20 sec×2) using a POLYTORON homogenizer (Central Scientific Commerce, Inc.).
This cell lysate was centrifuged (4° C., 850×g, […]), and the supernatant was further ultracentrifuged (4° C., 186,000×g, 60 min). The supernatant was discarded, and buffer A was added to the precipitate. The resultant was suspended using POLYTRON (4° C., 10,000 rpm, 10 sec×2) and passed through a 40-μm cell strainer to prepare a human SCD1-expressing membrane fraction (hereinafter, also simply referred to as human SCD1). The protein concentration was measured using BCA Protein Assay Kit (Thermo Fisher Scientific, Inc.) with BSA used as standards.
The obtained primary dilution was diluted 250-fold by the addition of an assay buffer (10 mM Tris-HCl, pH 7.5, 100 mM KCl, 10 mM NaF, 3 mM MgCl2, 0.005% Tween 20, 1 mM GSH) to obtain a secondary dilution. The human SCD1 diluted using an assay buffer was dispensed at 100 μL/well (containing 0.2 μg of the protein) to a polypropylene 96-well plate, and then, the secondary dilution of the compound was added thereto at 50 μL/well. Further, a solution of 12 nM compound Z diluted with an assay buffer was added thereto at 50 μL/well, and the plate was left standing at room temperature for 2 hours. Then, the contents in each well were transferred to each well of UniFilter-96 GF/C PEI coated plate (PerkinElmer, Inc.) wetted with a washing buffer, followed by washing five times with a washing buffer (10 mM Tris-HCl, pH 7.5). After drying of the filter plate, Microscint-O (PerkinElmer, Inc.) was added thereto at 25 μL/well, and the obtained radioactivity was measured using TopCount (PerkinElmer, Inc.). […]

The results in this text go back to patent publication US20170015654A1, “PYRIDAZINE COMPOUND” (TAKEDA PHARMACEUTICAL COMPANY LIMITED, priority 2014, published 2017).

On to `OCc1noc(-c2ccc(N3CCC(c4ccc(C(F)(F)F)cc4)(C(F)(F)F)CC3)nn2)n1` [Example 82, (5-(6-(4-(Trifluoromethyl)-4-(4-(trifluoromethyl)phenyl)piperidin-1-yl)pyridazin-3-yl)-1,2,4-oxadiazol-3-yl)methanol], for which the inhibition at 1 µM stood at 89% in experiment [1] and 99% in experiment [2].

With `N#CC1(c2ccc(S(F)(F)(F)(F)F)cc2)CCN(c2ccc(-c3nnc(CO)o3)nn2)CC1` [Example 58, 1-(6-(5-(Hydroxymethyl)-1,3,4-oxadiazol-2-yl)pyridazin-3-yl)-4-(4-(pentafluorosulfanyl)phenyl)piperidine-4-carbonitrile], the inhibition at 1 µM in experiment [1] amounted to 88%; in experiment [2], 89%.

Regarding `COC1(c2ccc(S(F)(F)(F)(F)F)cc2)CCN(c2ccc(-c3nnc(CO)s3)nn2)CC1` [Example 111, (5-(6-(4-Methoxy-4-(4-(pentafluorosulfanyl)phenyl)piperidin-1-yl)pyridazin-3-yl)-1,3,4-thiadiazol-2-yl)methanol], the inhibition at 1 µM in experiment [1] was 86%. The inhibition at 0.1 µM in experiment [2] (0.1 μM compound, read-out: Rate of inhibition of SCD1 binding at compound concentration of 0.1 μM) is 93%.

As to `N#CC1(c2ccc(S(F)(F)(F)(F)F)cc2)CCN(c2ccc(-c3nc(CO)ns3)nn2)CC1` [Example 108, 1-(6-(3-(Hydroxymethyl)-1,2,4-thiadiazol-5-yl)pyridazin-3-yl)-4-(4-(pentafluorosulfanyl)phenyl)piperidine-4-carbonitrile], the values for the inhibition at 1 µM in experiment [1] and in experiment [2] were 90% and 99%, respectively.

In the case of `N#CC1(c2ccc(S(F)(F)(F)(F)F)cc2)CCN(c2ccc(-c3nnc(CO)s3)nn2)CC1` [Example 109, 1-(6-(5-(Hydroxymethyl)-1,3,4-thiadiazol-2-yl)pyridazin-3-yl)-4-(4-(pentafluorosulfanyl)phenyl)piperidine-4-carbonitrile], the inhibition at 1 µM was found to be 88% in experiment [1] and 87% in experiment [2].

Turning to `OCc1nnc(-c2ccc(N3CCC(c4ccc(C(F)(F)F)cc4)(C(F)(F)F)CC3)nn2)s1` [Example 113, (5-(6-(4-(Trifluoromethyl)-4-(4-(trifluoromethyl)phenyl)piperidin-1-yl)pyridazin-3-yl)-1,3,4-thiadiazol-2-yl)methanol], the figures for the inhibition at 1 µM in experiment [1] and in experiment [2] were 84% and 100%, respectively.

Consider `OCc1nnc(-c2ccc(N3CCC(c4ccc(C(F)(F)F)cc4)(C(F)(F)F)CC3)nn2)o1` [Example 84, (5-(6-(4-(Trifluoromethyl)-4-(4-(trifluoromethyl)phenyl)piperidin-1-yl)pyridazin-3-yl)-1,3,4-oxadiazol-2-yl)methanol], for which the inhibition at 1 µM in experiment [1] stood at 88%; in experiment [2], 99%.

`COC1(c2ccc(S(F)(F)(F)(F)F)cc2)CCN(c2ccc(-c3nnc(CO)o3)nn2)CC1` [Example 93, (5-(6-(4-Methoxy-4-(4-(pentafluorosulfanyl)phenyl)piperidin-1-yl)pyridazin-3-yl)-1,3,4-oxadiazol-2-yl)methanol]: the inhibition at 1 µM in experiment [1] was 85%; in experiment [2] it was 98%.

With `OCc1nsc(-c2ccc(N3CCC(c4ccc(C(F)(F)F)cc4)(C(F)(F)F)CC3)nn2)n1` [Example 112, (5-(6-(4-(Trifluoromethyl)-4-(4-(trifluoromethyl)phenyl)piperidin-1-yl)pyridazin-3-yl)-1,2,4-thiadiazol-3-yl)methanol], the inhibition at 1 µM was found to be 90% in experiment [1] and 99% in experiment [2].

In the case of `COC1(c2ccc(S(F)(F)(F)(F)F)cc2)CCN(c2ccc(-c3nc(CO)ns3)nn2)CC1` [Example 110, (5-(6-(4-Methoxy-4-(4-(pentafluorosulfanyl)phenyl)piperidin-1-yl)pyridazin-3-yl)-1,2,4-thiadiazol-3-yl)methanol], the results for the inhibition at 1 µM in experiment [1] and in experiment [2] were 89% and 100%, respectively.
